The source of these data is paper PMC10786919, “Design-rules for stapled peptides with in vivo activity and their application to Mdm2/X antagonists” (Nature Communications, 2024).

Data set [1] can be described thus: Lactate dehydrogenase (LDH) release assay. It counts as cell-based. The essentials:
(§1)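 LDH release, fluorometric membrane-integrity read-out; HCT116 with stable p53-responsive β-lactamase reporter; 8000 cells/well; 0.5% DMSO final; geometric mean, n≥3 biological replicates.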

Data set [2] is described as follows: Solubility assay (kinetic solubility, PBS pH 7). It counts as physicochemical. The method in brief:
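Reference standards were made by diluting the 10 mM stock to 100 µM in acetonitrile:methanol:DMSO 10:80:10. Solubility in µM was calculated as the sample peak area divided by the standard peak area, multiplied by the standard concentration.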

Data set [3] concerns Ca Ski cell line. Particulars: 72 h. The essentials:
(§2)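 Compound dilution series (10 points, 3-fold, 10 mM top stock in DMSO) tested on overnight-plated Ca Ski cells in RPMI1640/10% FBS and on blasticidin-selected p53RE-bla HCT-116 cells in McCoy's 5A; read-out was CellTiter-Glo 2.0 luminescence after room-temperature equilibration.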

The subject of data set [4] is CellSensor p53RE-bla HCT-116 Cell Line. The conditions noted are these: 72 h. The essentials:
as §2

A short description of data set [5]: in vitro. The method in brief: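 Azido-peptide permeability was read as loss of NanoBRET signal (donor 450 nm, acceptor 610 nm) after adding NanoBret618-azide at 10 μM final.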
Data set [6] is described as follows: EPSA. It counts as physicochemical. Particulars: EPSA.
For data set [7] the following is noted: Fig S4.
Data set [8] is described as follows: in vitro. The conditions noted are these: human, HCT116 whole cell homogenates.
Data set [9] relates to panel of cancer cell lines, p53 WT or p53 deficient (null, mutant, HPV infected). It counts as cell-based. Particulars: p53 WT vs p53 null/mutant/HPV. From the text:
Amongst the cell lines used, the following lines are amongst those listed as frequently misidentified by the International Cell Line Authentication Committee: HeLa, A549, HepG2, MCF-7,LoVo, SW48,.AsPC-1,HL-60, and MIA PaCa-2. These latter lines were used in order to employ a variety of lines represented diverse cancer types and that represented different p53 status (wild-type, mutant, null, and HPV infected). Imporantly, assay ready cells were used for these experiments and PCR analysis of target short tandem repeat (STR) markers was used to authenticate cell lines prior to cell banking. Cell viabilities were determined using the CellTiter-Glo® assay kit (Promega G7558). […] Assay plates were incubated at 37 °C, 5% CO2 overnight to allow cell attachment. Following day, compounds were dispensed into the assay plate using the Tecan HPD300 system and incubated at 37 °C, 5% CO2 for 120 h. At 120 h post dose, CellTiter-Glo assay was performed according to the manufacturer’s protocol. […] Staurosporine (Selleckchem S1421) was used as a positive control for the assay.

The subject of data set [10] is HCT116 cells. Kind of data set: Lactate dehydrogenase (LDH) release assay. The format is cell-based. The method in brief:
as §1

A short description of data set [11]: physchem.
Data set [12] is described as follows: Experimental LogD (partition coefficient).
[13] abbreviates: Nanoclick permeability assay EC50.

In brackets after ≈: the same amount, converted by molar mass. Where two headings read alike, the source gives them in different places. Positions of bridges follow the written chain, without caps; N, C: chain ends. Non-standard residues stand in square brackets, D forms with d. Residues, ends and D or L forms follow the SMILES beside them. Lys(N3) = [N-]=[N+]=NCCCC[C@H](N)C(=O)O; R8 = C=CCCCCCC[C@@](C)(N)C(=O)O; Cba = N[C@@H](CC1CCC1)C(=O)O; S5 = C=CCCC[C@](C)(N)C(=O)O; βAla = NCCC(=O)O Some results are limits rather than exact numbers.

Take `CC(=O)N[C@@H](CCCCN=[N+]=[N-])C(=O)NCCC(=O)N[C@@H](CC(C)C)C(=O)N[C@H](C(=O)N[C@@H](Cc1ccccc1)C(=O)N[C@]1(C)CCCCCCC=CCCC[C@@](C)(C(=O)N[C@@H](C)C(=O)N[C@@H](C)C(=O)N[C@@H](C)C(=O)N[C@@H](C)C(=O)N[C@@H](C)C(=O)N[C@H](C)C(N)=O)NC(=O)[C@H](CC2CCC2)NC(=O)[C@H](CCC(N)=O)NC(=O)[C@H](C)NC(=O)[C@H](Cc2c[nH]c3ccccc23)NC(=O)[C@H](Cc2ccc(O)cc2)NC(=O)[C@H](CCC(=O)O)NC1=O)[C@@H](C)O` [MP-464] (Ac-[Lys(N3)][βAla]LTF[R8]EYWAQ[Cba][S5]AAAAA[dA]-NH2; staple 6-13): the EC50 in data set [1] (LDH: Cytotoxicity assay: EC50) is over 50.7 µM; in data set [3], over 49.8 µM; in [4], 420 nM. For the same compound, in data set [2] (pH 7, aqueous buffer, kinetic from dmso stock, pH 7, PBS, read-out: Solubility), the solubility kinetic came to 157 µM (≈ 340 µg/mL). Moreover, in data set [5] (setting [13]), the cell entry EC50 is 4190 nM. This compound also registered an EPSA in data set [6] of 194 A^2. Moreover, the “stability in serum plasma” value in [7] is recorded as “highly stable”. In addition, the half-life at 1 μM in data set [8] is 92 min.

For the compound `CC1CCC(Cn2c(N3CCO[C@@H]4CCC[C@H]43)nc3cc(-c4noc(=O)[nH]4)nc(-c4cncc(Cl)c4)c32)CC1` (some centres unmarked) [MK-4688, reference compound], the “off-target proliferation effects in p53 deficient control lines” value in [9] is “significant off-target toxicities”.

Turning to `CC(=O)N[C@@H](CCCCN=[N+]=[N-])C(=O)NCCC(=O)N[C@H]1CCCCNC(=O)CC[C@@H]2NC(=O)[C@@](C)(CCCCCCC=CCCC[C@@](C)(C(=O)N[C@@H](CO)C(=O)N[C@@H](C)C(=O)N[C@@H](C)C(N)=O)NC(=O)[C@H](CC3CCC3)NC(=O)[C@H](CCC(N)=O)NC(=O)[C@H](C)NC(=O)[C@H](Cc3c[nH]c4ccccc34)NC(=O)[C@H](Cc3ccc(O)cc3)NC2=O)NC(=O)[C@H](Cc2ccccc2)NC(=O)[C@H]([C@@H](C)O)NC1=O` [MP-002], the EC50 in data set [1] (0% FBS 4Hr, read-out: LDH: Cytotoxicity assay: EC50) was over 50.7 µM; in [1] (0% FBS 16Hr, read-out: LDH: Cytotoxicity assay: EC50) it was over 50.7 µM; in data set [1] (10% FBS 4Hr, read-out: LDH: Cytotoxicity assay: EC50), over 50.7 µM; in data set [1] (10% FBS 16Hr, read-out: LDH: Cytotoxicity assay: EC50) it was over 50.7 µM. The “LDH: Cytotoxicity assay: % Effect” value in [10] (0% FBS 4Hr) was -7.169%; in [10] (0% FBS 16Hr) it was 0.3781%; in [10] (10% FBS 4Hr), -6.533%; in data set [10] (10% FBS 16Hr) it was -11.6%. Also, the Solubility entry in data set [2] is listed as “poor behavior”; in data set [2] (pH 7, PBS), “Poorly Behaved”. The “off-target proliferation effects in p53 deficient control lines” value in data set [9] is recorded as “remarkably devoid of off-target toxicity”. The cell entry EC50 in [5] was 462 nM. In data set [11], this compound came in with an EPSA of 182 A^2. Further, the “Partition Coeff LogD” value in [12] is “Poorly Behaved”.

Turning to `CC(=O)N[C@@H](CCCCN=[N+]=[N-])C(=O)NCCC(=O)N[C@@H](CC(C)C)C(=O)N[C@H](C(=O)N[C@@H](Cc1ccccc1)C(=O)N[C@]1(C)CCCCCCC=CCCC[C@@](C)(C(=O)N[C@@H](C)C(=O)N[C@@H](C)C(=O)N[C@@H](C)C(=O)N[C@@H](C)C(=O)N[C@@H](C)C(=O)N[C@@H](C)C(N)=O)NC(=O)[C@H](CC2CCC2)NC(=O)[C@H](CCC(N)=O)NC(=O)[C@H](C)NC(=O)[C@H](Cc2c[nH]c3ccccc23)NC(=O)[C@H](Cc2ccc(O)cc2)NC(=O)[C@H](CCC(=O)O)NC1=O)[C@@H](C)O` [MP-032] (Ac-[Lys(N3)][βAla]LTF[R8]EYWAQ[Cba][S5]AAAAAA-NH2; staple 6-13), the EC50 was over 50.7 µM in data set [1] (LDH: Cytotoxicity assay: EC50), 26.6 µM in data set [3] and 960 nM in data set [4]. For the same compound, the Solubility result was “P.B” in [2] and “Poorly Behaved” in data set [2] (pH 7, PBS). In addition, the cell entry EC50 in data set [5] (setting [13]) is 708 nM. Further, the EPSA in [6] was 194 A^2. This compound gave a half-life at 1 μM in data set [8] of 30 min. Besides, the “Partition Coeff LogD” value in data set [12] is “Poorly Behaved”.

Usually EC50 stands for the concentration needed to bring the measured effect to its halfway point. A word on the half-life: it is the time needed for the level to fall by half in the phase considered. A high value points to slow loss.
